# Test results from ChEMBL document CHEMBL5107949, “Design, synthesis, and antibacterial activity of N-(trifluoromethyl)phenyl substituted pyrazole derivatives” (RSC Med Chem, 2021).
# The source made the active and inactive calls. The rule behind the calls is not given here.
# Assays:
# Staphylococcus aureus [1] = experiment: Inhibition of protein synthesis in Staphylococcus aureus ATCC 29213 at 8 times MIC preincubated for 30 mins followed by [3H]-leucine and measured after 40 mins by [3H]-leucine incorporation based beta scintillation counter analysis; type: functional; settings: time 70.0 min
# HEK293 = experiment: Cytotoxicity against human HEK293 cells reduction in cell viability at 74 ug/ml incubated for 24 hrs by resazurin cell viability assay; type: toxicity, cell-based; settings: hek293, 24 h, at 74 µg/mL
# Staphylococcus aureus [2] = experiment: Antibacterial activity against antibiotic susceptible Staphylococcus aureus ATCC 25923 assessed as inhibition of bacterial growth by CLSI protocol based broth microdilution method; type: functional
# Staphylococcus aureus [3] = experiment: Antibacterial activity against antibiotic resistant Staphylococcus aureus ATCC 33591 assessed as inhibition of bacterial growth by CLSI protocol based broth microdilution method; type: functional
# Staphylococcus aureus [4] = experiment: Antibacterial activity against antibiotic resistant Staphylococcus aureus ATCC 33592 assessed as inhibition of bacterial growth by CLSI protocol based broth microdilution method; type: functional
# Staphylococcus aureus [5] = experiment: Antibacterial activity against antibiotic resistant Staphylococcus aureus BAA-2312 assessed as inhibition of bacterial growth by CLSI protocol based broth microdilution method; type: functional
# Staphylococcus aureus [6] = experiment: Antibacterial activity against antibiotic resistant Staphylococcus aureus ATCC 700699 assessed as inhibition of bacterial growth by CLSI protocol based broth microdilution method; type: functional
# [7] = test system: Staphylococcus epidermidis; experiment: Antibacterial activity against antibiotic resistant Staphylococcus epidermidis ATCC 700296 assessed as inhibition of bacterial growth by CLSI protocol based broth microdilution method; type: functional
# Bacillus subtilis = experiment: Antibacterial activity against antibiotic resistant Bacillus subtilis ATCC 6623 assessed as inhibition of bacterial growth by CLSI protocol based broth microdilution method; type: functional
# Enterococcus faecalis [8] = experiment: Antibacterial activity against antibiotic susceptible Enterococcus faecalis ATCC 29212 assessed as inhibition of bacterial growth by CLSI protocol based broth microdilution method; type: functional
# Enterococcus faecium [9] = experiment: Antibacterial activity against vancomycin resistant Enterococcus faecium ATCC 700221 assessed as inhibition of bacterial growth by CLSI protocol based broth microdilution method; type: functional
# [10] = Cytotoxicity against human HEK293 cells reduction in cell viability incubated for 24 hrs by resazurin cell viability assay; type: toxicity, cell-based
# Enterococcus faecalis [11] = experiment: Inhibition of biofilm formation in Enterococcus faecalis ATCC 29212 at 12.5 ug/ml incubated for 24 hrs by Calgary biofilm device assay; type: functional
# Enterococcus faecalis [12] = experiment: Anti-biofilm activity against Enterococcus faecalis ATCC 29212 assessed as biofilm eradication at 3.125 to 12.5 ug/ml incubated for 24 hrs by Calgary biofilm device assay; type: functional, organism-based; settings: dose 3.125-12.5 µg/ml
# Staphylococcus aureus [13] = experiment: Inhibition of biofilm formation in Staphylococcus aureus ATCC 25923 at 3.125 to 12.5 ug/ml incubated for 24 hrs by Calgary biofilm device assay; type: functional, organism-based; settings: dose 3.125-12.5 µg/ml, DDE = dose-dependent effect
# Enterococcus faecalis [14] = experiment: Anti-biofilm activity against Enterococcus faecalis ATCC 29212 assessed as eradication of biofilm formation incubated for 24 hrs by Calgary biofilm device assay; type: functional
# Staphylococcus aureus [15] = experiment: Anti-biofilm activity against Staphylococcus aureus ATCC 25923 assessed as eradication of biofilm formation incubated for 24 hrs by Calgary biofilm device assay; type: functional
# Staphylococcus aureus [16] = experiment: Bactericidal activity against Staphylococcus aureus ATCC 700699 assessed as bacteria elimination at 4 times MIC and measured after 6 hrs by time-kill assay; type: functional
# Staphylococcus aureus [17] = experiment: Bactericidal activity against Staphylococcus aureus ATCC 700699 persisters assessed as log reduction in colony forming unit at 16 times MIC after 4 hrs by colony counting method; type: functional
# Staphylococcus aureus [18] = experiment: Bactericidal activity against Staphylococcus aureus ATCC 700699 persisters assessed as log reduction in colony forming unit at 2 to 32 times MIC measured for 4 hrs by time kill assay; type: functional, organism-based; settings: DDE = dose-dependent effect
# Staphylococcus aureus [19] = experiment: Bactericidal activity against Staphylococcus aureus ATCC 700699 persisters assessed as log reduction in colony forming unit at 16 times MIC measured for 4 hrs by time kill assay; type: functional
# Staphylococcus aureus [20] = experiment: Bactericidal activity against Staphylococcus aureus ATCC 700699 persisters assessed as log reduction in colony forming unit at 32 times MIC measured for 4 hrs by time kill assay; type: functional
# Enterococcus faecalis [21] = experiment: Anti-biofilm activity against Enterococcus faecalis ATCC 29212 assessed as minimum bactericidal concentration incubated for 24 hrs by Calgary biofilm device assay; settings: ATCC 29212, 24 h
# Staphylococcus aureus [22] = experiment: Antibacterial activity against Staphylococcus aureus ATCC 25923 assessed as minimum bactericidal concentration incubated for 24 hrs by Calgary biofilm device assay; settings: ATCC 25923, 24 h
# Staphylococcus aureus [23] = experiment: Inhibition of RNA synthesis in Staphylococcus aureus ATCC 29213 at 8 times MIC preincubated for 30 mins followed by [3H]-uridine and measured after 30 mins by [3H]-uridine incorporation based beta scintillation counter analysis; type: functional; settings: time 60 min; 1 h
# Staphylococcus aureus [24] = experiment: Bactericidal activity against Staphylococcus aureus ATCC 700699 persisters assessed as log reduction in colony forming unit at 64 times MIC after 4 hrs by colony counting method; type: functional, organism-based
# Enterococcus faecalis [25] = experiment: Antibacterial activity against Enterococcus faecalis clinical isolate 1088051 assessed as inhibition of bacterial growth by CLSI protocol based broth microdilution method; type: functional
# Enterococcus faecalis [26] = experiment: Antibacterial activity against Enterococcus faecalis clinical isolate 1091563 assessed as inhibition of bacterial growth by CLSI protocol based broth microdilution method; type: functional
# Enterococcus faecalis [27] = experiment: Antibacterial activity against Enterococcus faecalis clinical isolate 1091720 assessed as inhibition of bacterial growth by CLSI protocol based broth microdilution method; type: functional
# Enterococcus faecalis [28] = experiment: Antibacterial activity against Enterococcus faecalis clinical isolate 1094112 assessed as inhibition of bacterial growth by CLSI protocol based broth microdilution method; type: functional
# Enterococcus faecalis [29] = experiment: Antibacterial activity against Enterococcus faecalis clinical isolate 1100440 assessed as inhibition of bacterial growth by CLSI protocol based broth microdilution method; type: functional
# Enterococcus faecium [30] = experiment: Antibacterial activity against Enterococcus faecium clinical isolate 1088168 assessed as inhibition of bacterial growth by CLSI protocol based broth microdilution method; type: functional
# Enterococcus faecium [31] = experiment: Antibacterial activity against Enterococcus faecium clinical isolate 1088228 assessed as inhibition of bacterial growth by CLSI protocol based broth microdilution method; type: functional
# Enterococcus faecium [32] = experiment: Antibacterial activity against Enterococcus faecium clinical isolate 1088925 assessed as inhibition of bacterial growth by CLSI protocol based broth microdilution method; type: functional
# Enterococcus faecium [33] = experiment: Antibacterial activity against Enterococcus faecium clinical isolate 1089544 assessed as inhibition of bacterial growth by CLSI protocol based broth microdilution method; type: functional
# Enterococcus faecium [34] = experiment: Antibacterial activity against Enterococcus faecium clinical isolate 1091282 assessed as inhibition of bacterial growth by CLSI protocol based broth microdilution method; type: functional
# Staphylococcus aureus [35] = experiment: Antibacterial activity against Staphylococcus aureus clinical isolate 1088060 assessed as inhibition of bacterial growth by CLSI protocol based broth microdilution method; type: functional
# Staphylococcus aureus [36] = experiment: Antibacterial activity against Staphylococcus aureus clinical isolate 1088105 assessed as inhibition of bacterial growth by CLSI protocol based broth microdilution method; type: functional
# Staphylococcus aureus [37] = experiment: Antibacterial activity against Staphylococcus aureus clinical isolate 1088626 assessed as inhibition of bacterial growth by CLSI protocol based broth microdilution method; type: functional
# Staphylococcus aureus [38] = experiment: Antibacterial activity against Staphylococcus aureus clinical isolate 1088064 assessed as inhibition of bacterial growth by CLSI protocol based broth microdilution method; type: functional
# Staphylococcus aureus [39] = experiment: Antibacterial activity against Staphylococcus aureus clinical isolate 1088610 assessed as inhibition of bacterial growth by CLSI protocol based broth microdilution method; type: functional
# Staphylococcus aureus [40] = experiment: Antibacterial activity against Staphylococcus aureus clinical isolate 1088888 assessed as inhibition of bacterial growth by CLSI protocol based broth microdilution method; type: functional
# Staphylococcus aureus [41] = experiment: Antibacterial activity against Staphylococcus aureus clinical isolate 1089106 assessed as inhibition of bacterial growth by CLSI protocol based broth microdilution method; type: functional
compound,measurement,setting,value
CC(=O)NC[C@H]1CN(c2ccc(N3CCOCC3)c(F)c2)C(=O)O1,inhibition,Staphylococcus aureus [1],70.7%
CC/C(=C(\c1ccccc1)c1ccc(OCCN(C)C)cc1)c1ccccc1 [TAMOXIFEN],Activity,HEK293,100%
O=C(O)c1ccc(-c2nn(-c3ccc(C(F)(F)F)cc3)cc2CNc2ccc(Oc3ccccc3)cc2)cc1,MIC,Staphylococcus aureus [2],1.56 mg/L
same,MIC,Staphylococcus aureus [3],3.12 mg/L
same,MIC,Staphylococcus aureus [4],1.56 mg/L
same,MIC,Staphylococcus aureus [5],3.12 mg/L
same,MIC,Staphylococcus aureus [6],1.56 mg/L
same,MIC,[7],3.12 mg/L
same,MIC,Bacillus subtilis,1.56 mg/L
same,MIC,Enterococcus faecalis [8],3.12 mg/L
same,MIC,Enterococcus faecium [9],1.56 mg/L
same,IC50 at 24 h,[10],23.5 mg/L
same,inhibition at 12.5 µg/mL,Enterococcus faecalis [11],100%
same,Activity,Enterococcus faecalis [12],Active
same,inhibition,Staphylococcus aureus [13],Dde
same,MBEC,Enterococcus faecalis [14],12.5 µg/mL
same,MBEC,Staphylococcus aureus [15],6.25 µg/mL
same,Activity,Staphylococcus aureus [16],>99.9%
same,log(activity),Staphylococcus aureus [17],>2
same,Activity,Staphylococcus aureus [18],Dde
same,log(activity),Staphylococcus aureus [19],3
same,log(activity),Staphylococcus aureus [20],3
same,MBC,Enterococcus faecalis [21],12.5 mg/L
same,MBC,Staphylococcus aureus [22],3.12 mg/L
CO[C@H]1/C=C/O[C@@]2(C)Oc3c(C)c(O)c4c(O)c(c(/C=N/N5CCN(C)CC5)c(O)c4c3C2=O)NC(=O)/C(C)=C\C=C\[C@H](C)[C@H](O)[C@@H](C)[C@@H](O)[C@@H](C)[C@H](OC(C)=O)[C@@H]1C [RIFAMPIN],inhibition (INH),Staphylococcus aureus [23],76.3%
GENTAMICIN,Activity,Staphylococcus aureus [16],> 99.9%
same,log(activity),Staphylococcus aureus [24],1
Cc1onc(-c2ccccc2)c1C(=O)N[C@@H]1C(=O)N2[C@@H]1SC(C)(C)[C@@H]2C(=O)O [OXACILLIN],MIC,Enterococcus faecalis [25],64 mg/L
same,MIC,Enterococcus faecalis [26],64 mg/L
same,MIC,Enterococcus faecalis [27],64 mg/L
same,MIC,Enterococcus faecalis [28],> 64 mg/L
same,MIC,Enterococcus faecalis [29],> 64 mg/L
same,MIC,Enterococcus faecium [30],> 64 mg/L
same,MIC,Enterococcus faecium [31],> 64 mg/L
same,MIC,Enterococcus faecium [32],> 64 mg/L
same,MIC,Enterococcus faecium [33],> 64 mg/L
same,MIC,Enterococcus faecium [34],> 64 mg/L
same,MIC,Staphylococcus aureus [35],0.5 mg/L
same,MIC,Staphylococcus aureus [36],0.25 mg/L
same,MIC,Staphylococcus aureus [37],0.25 mg/L
same,MIC,Staphylococcus aureus [38],64 mg/L
same,MIC,Staphylococcus aureus [39],64 mg/L
same,MIC,Staphylococcus aureus [40],> 64 mg/L
same,MIC,Staphylococcus aureus [41],64 mg/L
